Assay results published in publication PMC4122130 (Journal of neuroscience research, 2012).

Target: α7 nAChR (Homo sapiens, UniProt P36544)
Experiment: whole-cell patch clamp, inhibition of […] ACh-evoked currents by […] 4R
Type: cell-based
Details: shsy5y cells

α7 nAChR, sequence (P36544 23-502): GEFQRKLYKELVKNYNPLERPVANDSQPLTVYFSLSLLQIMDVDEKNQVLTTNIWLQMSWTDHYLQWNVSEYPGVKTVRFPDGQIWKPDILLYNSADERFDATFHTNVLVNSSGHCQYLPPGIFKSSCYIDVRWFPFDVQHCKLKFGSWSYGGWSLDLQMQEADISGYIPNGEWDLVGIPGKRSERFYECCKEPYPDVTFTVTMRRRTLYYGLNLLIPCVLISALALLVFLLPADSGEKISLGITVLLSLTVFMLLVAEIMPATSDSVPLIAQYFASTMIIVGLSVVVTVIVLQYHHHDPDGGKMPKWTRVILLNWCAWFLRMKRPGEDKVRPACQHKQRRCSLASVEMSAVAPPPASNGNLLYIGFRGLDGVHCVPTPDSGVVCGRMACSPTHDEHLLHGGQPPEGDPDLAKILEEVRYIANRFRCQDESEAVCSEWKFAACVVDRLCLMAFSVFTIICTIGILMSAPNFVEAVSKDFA

C/C1=C\[C@H](O)C[C@@](C)(O)/C=C/[C@H](C(C)C)CC/C(C)=C/CC1 [4R, (1S,2E,4R,6R,7E,11E)-cembra-2,7,11-triene-4,6-diol] was tested, and the “% inhibition at 25 μM” value was 82% ± 18% inhibition at 25 μM.
